The source of these data is BindingDB's records for doi:10.1124/jpet.104.070086 (University of North Carolina At Chapel Hill, 2004).

The structures appear in SMILES notation.

This experiment concerns the target Histamine H1 receptor (Cavia porcellus, UniProt P31389).

Sequence of Histamine H1 receptor (P31389 whole entry): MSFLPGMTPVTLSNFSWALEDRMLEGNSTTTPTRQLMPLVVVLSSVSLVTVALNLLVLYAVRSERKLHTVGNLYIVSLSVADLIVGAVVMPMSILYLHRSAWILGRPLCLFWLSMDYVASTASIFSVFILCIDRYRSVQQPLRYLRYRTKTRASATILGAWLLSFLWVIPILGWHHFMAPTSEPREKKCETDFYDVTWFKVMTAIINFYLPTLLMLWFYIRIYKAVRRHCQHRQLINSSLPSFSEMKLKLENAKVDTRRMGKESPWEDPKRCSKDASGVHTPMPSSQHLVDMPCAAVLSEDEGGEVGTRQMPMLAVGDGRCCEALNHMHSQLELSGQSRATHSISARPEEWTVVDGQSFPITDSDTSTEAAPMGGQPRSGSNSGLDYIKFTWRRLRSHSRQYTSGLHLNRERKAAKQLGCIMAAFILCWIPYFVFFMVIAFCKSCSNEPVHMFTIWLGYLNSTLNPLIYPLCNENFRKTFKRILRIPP

As to `Cc1ccc(C(=CCN2CCCC2)c2ccccn2)cc1` [CAS_486-12-4], the Ki (usually a measure of affinity in units of concentration, obtained from inhibition or displacement) came to 0.93 nM.
